SMILES strings stand for the structures.

The test has as its target 5-hydroxytryptamine receptor 1A (Sus scrofa). Kind of test: Compound was tested in vitro for its ability to compete with [3H]8-OH-DPAT at 5-hydroxytryptamine 1A receptor in porcine brain homogenate.

As a reminder, the Ki is the equilibrium dissociation constant of an inhibitor or competing ligand from its target. A high value points to lower affinity. Take `N#Cc1cccc2c(CN3CCN(c4ccc(Cl)cc4)CC3)cnn12` [3-[4-(4-Chloro-phenyl)-piperazin-1-ylmethyl]-pyrazolo[1,5-a]pyridine-7-carbonitrile]: affinity was put at a Ki of 2200 nM. This counts as single-digit micromolar.
